Key:
Test in all cases: Test D pre-/postemergence plant response
Format in all cases: in vivo
[1] = tested on: purslane (common purslane, Portulaca oleracea)
How it was run: (§1)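 Visual 0–100 scoring (100 = complete control) versus untreated controls after 14–21 greenhouse days. Compounds, formulated in surfactant-containing non-phytotoxic solvent, were applied preemergence to seeded loam/sand and postemergence to 2–18 cm plants (1–4 leaves).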

[2] = tested on: field bindweed (Convolvulus arvensis)
How it was run: as §1

[3] = tested on: Surinam grass (Brachiaria decumbens)
How it was run: as §1

[4] = tested on: johnsongrass (Sorghum halepense)
How it was run: as §1

[5] = tested on: naked crabgrass (Digitaria nuda)
How it was run: as §1

[6] = tested on: morningglory (pitted morningglory, Ipomoea lacunosa)
How it was run: as §1

[7] = tested on: goosegrass (Eleusine indica)
How it was run: as §1

[8] = tested on: nutsedge (purple nutsedge, Cyperus rotundus)
How it was run: as §1

[9] = tested on: large crabgrass (Digitaria sanguinalis)
How it was run: as §1

[10] = tested on: chickweed (common chickweed, Stellaria media); conditions: Postemergence
How it was run: as §1

kochia (Kochia scoparia) = tested on: kochia (Kochia scoparia)
How it was run: as §1

[11] = tested on: groundsel (common groundsel, Senecio vulgaris); conditions: Postemergence
How it was run: as §1

[12] = tested on: bluegrass (annual bluegrass, Poa annua)
How it was run: as §1

[13] = tested on: spanishneedles (Bidens bipinnata)
How it was run: as §1

[14] = tested on: Italian ryegrass (Lolium multiflorum)
How it was run: as §1

[15] = Postemergence, 16 g ai/ha, scale 0 to 100
[16] = Postemergence, 31 g ai/ha, scale 0 to 100
[17] = Postemergence, 125 g ai/ha, scale 0 to 100 (0 no effect, 100 complete control)
[18] = Postemergence, 62 g ai/ha, scale 0 to 100 (0 no effect, 100 complete control)
[19] = Preemergence, 16 g ai/ha, scale 0 to 100, 0 no effect, 100 complete control
[20] = Preemergence, 31 g ai/ha, scale 0 to 100 (0 no effect, 100 complete control)
[21] = Preemergence, 62 g ai/ha, scale 0 to 100
[22] = Preemergence, 125 g ai/ha, scale 0 to 100
[23] = 125 g ai/ha, scale 0 to 100 (0 no effect, 100 complete control)
[24] = Preemergence, rate not given, scale 0 to 100, 0 no effect, 100 complete control

## Cc1c(F)cccc1-n1c(-c2ccccc2)ncc(C(=O)C2=C(O)CCCC2=O)c1=O [Compound 47, 3-(3-fluoro-2-methylphenyl)-5-[(2-hydroxy-6-oxo-1-cyclohexen-1-yl)carbonyl]-2-phenyl-4(3H)-pyrimidinone]
[1]; [15]
  Plant response rating, Purslane: 20
[1]; [16]
  Plant response rating, Purslane: 20
[1]; [17]
  Plant response rating, Purslane: 30
[1]; [18]
  Plant response rating, Purslane: 30
[1]; [19]
  Plant response rating, Purslane: 0
[1]; [20]
  Plant response rating, Purslane: 0
[1]; [21]
  Plant response rating, Purslane: 95
[1]; [22]
  Plant response rating, Purslane: 100
[2]; [15]
  Plant response rating, Field Bindweed: 35
[2]; [16]
  Plant response rating, Field Bindweed: 40
[2]; [17]
  Plant response rating, Field Bindweed: 65
[2]; [18]
  Plant response rating, Field Bindweed: 50
[2]; [19]
  Plant response rating, Field Bindweed: 0
[2]; [20]
  Plant response rating, Field Bindweed: 0
[2]; [21]
  Plant response rating, Field Bindweed: 0
[2]; [22]
  Plant response rating, Field Bindweed: 35
[3]; [15]
  Plant response rating, Surinam Grass: 35
[3]; [16]
  Plant response rating, Surinam Grass: 50
[3]; [17]
  Plant response rating, Surinam Grass: 70
[3]; [18]
  Plant response rating, Surinam Grass: 60
[3]; [19]
  Plant response rating, Surinam Grass: 0
[4]; [15]
  Plant response rating, Johnsongrass: 5
[4]; [16]
  Plant response rating, Johnsongrass: 15
[4]; [17]
  Plant response rating, Johnsongrass: 65
[4]; [18]
  Plant response rating, Johnsongrass: 35
[4]; [19]
  Plant response rating, Johnsongrass: 0
[4]; [20]
  Plant response rating, Johnsongrass: 0
[4]; [21]
  Plant response rating, Johnsongrass: 0
[4]; [22]
  Plant response rating, Johnsongrass: 75
[5]; [15]
  Plant response rating, Crabgrass, Naked: 20
[5]; [16]
  Plant response rating, Crabgrass, Naked: 35
[5]; [17]
  Plant response rating, Crabgrass, Naked: 65
[5]; [18]
  Plant response rating, Crabgrass, Naked: 35
[5]; [19]
  Plant response rating, Crabgrass, Naked: 0
[5]; [20]
  Plant response rating, Crabgrass, Naked: 0
[5]; [21]
  Plant response rating, Crabgrass, Naked: 60
[5]; [22]
  Plant response rating, Crabgrass, Naked: 98
[6]; [15]
  Plant response rating, Morningglory: 5
[6]; [16]
  Plant response rating, Morningglory: 5
[6]; [17]
  Plant response rating, Morningglory: 50
[6]; [19]
  Plant response rating, Morningglory: 0
[6]; [20]
  Plant response rating, Morningglory: 0
[6]; [21]
  Plant response rating, Morningglory: 20
[6]; [22]
  Plant response rating, Morningglory: 65
[7]; [15]
  Plant response rating, Goosegrass: 40
[7]; [16]
  Plant response rating, Goosegrass: 65
[7]; [17]
  Plant response rating, Goosegrass: 65
[7]; [18]
  Plant response rating, Goosegrass: 65
[7]; [19]
  Plant response rating, Goosegrass: 0
[7]; [20]
  Plant response rating, Goosegrass: 0
[7]; [21]
  Plant response rating, Goosegrass: 5
[7]; [22]
  Plant response rating, Goosegrass: 75
[8]; [15]
  Plant response rating, Nutsedge, Purple: 0
[8]; [16]
  Plant response rating, Nutsedge, Purple: 0
[8]; [17]
  Plant response rating, Nutsedge, Purple: 20
[8]; [18]
  Plant response rating, Nutsedge, Purple: 10
[8]; [19]
  Plant response rating, Nutsedge, Purple: 0
[8]; [20]
  Plant response rating, Nutsedge, Purple: 0
[8]; [21]
  Plant response rating, Nutsedge, Purple: 10
[8]; [22]
  Plant response rating, Nutsedge, Purple: 35
[9]; [15]
  Plant response rating, Crabgrass, Large: 20
[9]; [16]
  Plant response rating, Crabgrass, Large: 50
[9]; [17]
  Plant response rating, Crabgrass, Large: 65
[9]; [18]
  Plant response rating, Crabgrass, Large: 60
[9]; [19]
  Plant response rating, Crabgrass, Large: 0
[9]; [20]
  Plant response rating, Crabgrass, Large: 0
[9]; [21]
  Plant response rating, Crabgrass, Large: 5
[9]; [22]
  Plant response rating, Crabgrass, Large: 95
[10]; 16 g ai/ha, scale 0 to 100
  Plant response rating, Chickweed: 50
[10]; 31 g ai/ha, scale 0 to 100
  Plant response rating, Chickweed: 65
[10]; [23]
  Plant response rating, Chickweed: 65
Kochia (Kochia scoparia); [15]
  Plant response rating, Kochia: 0
Kochia (Kochia scoparia); [16]
  Plant response rating, Kochia: 10
Kochia (Kochia scoparia); [17]
  Plant response rating, Kochia: 30
Kochia (Kochia scoparia); [18]
  Plant response rating, Kochia: 20
Kochia (Kochia scoparia); [19]
  Plant response rating, Kochia: 0
Kochia (Kochia scoparia); [20]
  Plant response rating, Kochia: 50
Kochia (Kochia scoparia); [21]
  Plant response rating, Kochia: 100
Kochia (Kochia scoparia); [22]
  Plant response rating, Kochia: 100
[11]; 16 g ai/ha, scale 0 to 100
  Plant response rating, Groundsel: 100
[11]; 31 g ai/ha, scale 0 to 100
  Plant response rating, Groundsel: 100
[11]; [23]
  Plant response rating, Groundsel: 100
[11]; 62 g ai/ha, scale 0 to 100 (0 no effect, 100 complete control)
  Plant response rating, Groundsel: 100
[12]; [15]
  Plant response rating, Bluegrass: 0
[12]; Postemergence, 31 g ai/ha, scale 0 to 100 (0 no effect, 100 complete control)
  Plant response rating, Bluegrass: 0
[12]; [17]
  Plant response rating, Bluegrass: 0
[12]; [18]
  Plant response rating, Bluegrass: 0
[12]; [19]
  Plant response rating, Bluegrass: 0
[12]; [20]
  Plant response rating, Bluegrass: 0
[12]; [21]
  Plant response rating, Bluegrass: 0
[12]; [22]
  Plant response rating, Bluegrass: 35
[13]; [15]
  Plant response rating, Spanishneedles: 35
[13]; [16]
  Plant response rating, Spanishneedles: 40
[13]; [17]
  Plant response rating, Spanishneedles: 70
[13]; [18]
  Plant response rating, Spanishneedles: 65
[13]; [19]
  Plant response rating, Spanishneedles: 0
[13]; [20]
  Plant response rating, Spanishneedles: 95
[13]; [22]
  Plant response rating, Spanishneedles: 95
[13]; [24]
  Plant response rating, Spanishneedles: 95
[14]; [15]
  Plant response rating, Ryegrass, Italian: 0
[14]; [16]
  Plant response rating, Ryegrass, Italian: 10
[14]; [17]
  Plant response rating, Ryegrass, Italian: 30
[14]; [18]
  Plant response rating, Ryegrass, Italian: 20
[14]; [19]
  Plant response rating, Ryegrass, Italian: 0
[14]; [20]
  Plant response rating, Ryegrass, Italian: 0
[14]; [22]
  Plant response rating, Ryegrass, Italian: 0
[14]; [24]
  Plant response rating, Ryegrass, Italian: 0
